Legend:
[1] = test system: biotinylated AP-CFP-TM on HeLa cells; assay: Staining of biotinylated AP-CFP-TM on HeLa with Alexa Fluor 568-conjugated streptavidins; format: cell-based; settings: Alexa Fluor 568 conjugate 10 μg/mL, 10 min at 4° C.
Procedure: Enzymatic biotinylation and imaging of HeLa transfectants were performed as previously described (Howarth, M. et al., Proc. Natl. Acad. Sci. USA 102: 7583-7588, 2005), except instead of 10 μM biotin and 1 mM ATP, we added 10 μM biotin-AMP (synthesized according to Coleman and Huang; Coleman, T. M. and Huang, F. Chem. Biol. 9: 1227-1236, 2002) to give equivalent biotinylation but minimizing the risk of purinoreceptor activation by ATP (Rathbone, M. P. et al., Prog. Neurobiol. 59: 663-690, 1999). […] Biotinylation of neurons was performed at day in vitro (DIV) 8 in Hanks' Balanced Salt Solution (HBSS) (Invitrogen) with 0.2 μM biotin ligase and 10 μM biotin-AMP for 5 min at 37° C. […] Neurons were washed with NeuroBasal media (Invitrogen) supplemented with B-27 (Invitrogen), 50 U/mL penicillin, 50 μg/mL streptomycin, and 0.2 mM L-glutamine and chased in the same medium for 0 or 2 hr at 37° C. Cells were then fixed in −20° C. methanol. […]
Images of HeLa cells were collected on a Zeiss Axiovert 200M inverted epifluorescence microscope using a 40× oil-immersion lens and a MicroMAX CCD camera (Roper Scientific; Tucson, Ariz.). CFP (420DF20 excitation, 450DRLP dichroic, 475DF40 emission) and Alexa568 (560DF20 excitation, 585DRLP dichroic, 605DF30 emission) images were collected and analyzed using OpenLab software (Improvision; Lexington, Mass.). Fluorescence images were background-corrected. […] Images were scaled to 16 bits and analyzed in Northern Eclipse (Empix Imaging; Ontario, Canada) with user-written software. […] Results were then calculated in terms of clusters per micrometer of dendrite. For assessment of pre-synaptic terminals, clusters were determined as before and average grey levels of clusters were compared between transfected dendrites and untransfected dendrites within the same field of view. […] “n” represents the number of transfected neurons for which clusters were measured. […]

[2] = Electrospray ionization mass spectrometry: biotin molecules bound per avidin tetramer; format: binding; settings: spectra with or without biotin
Procedure: Biospin columns (Bio-Rad) are equilibrated by spinning 5 times in 500 μL of 15 mM ammonium acetate pH 7.8 at 1000 g for 2 min. Then 30-50 μL of 30 μM protein in PBS is buffer-exchanged into 15 mM ammonium acetate pH 7.8 using the pre-equilibrated Biospin columns by spinning for 20 s at 1000 g. To ensure that PBS is completely removed, the flow-through is again buffer-exchanged with a second pre-equilibrated column for 20 s. This procedure also removes free biotin when the starting 30 μM avidin forms are incubated with 200 μM biotin. Less than 2 min before introducing into the mass spectrometer, the buffer-exchanged samples are diluted with a solution of 1:1 15 mM ammonium acetate pH 7.8 and 78% acetonitrile, 0.01% trifluoroacetic acid.
An Advion nanospray robot (Advion BioSystems, Ithica, N.Y.) with a back-pressure of 0.45 Psi introduces the samples into the mass spectrometer, an 8.5 Tesla custom-built Electrospray Ionisation-Fourier Transform Mass Spectrometer. To visualize the non-covalent tetramers and non-covalent biotin binding in the high m/z range, the following settings are used: Chirp rate=750 Hz, Amplitude=0.5 V p-p, Tube lens=200 V, Capillary heater 2 V, Quad filter=−20 V, Skimmer=0 V, Capillary offset=34 V, X-fer=−110 V, Leak gas=4.2×10^−5 Torr. The capillary heater is kept low and the Quad filter and Skimmer are kept either high or off to prevent subunit dissociation. The transfer is set to this low value of −110 V in order to visualize the high m/z region.
The masses are calculated manually by first determining the charge state. The final mass is determined by multiplying the observed m/z by the charge and subtracting the mass corresponding to the addition of protons to give that charge. This calculation is repeated for each charge state and the mean and standard deviation reported. The spectra are calibrated with tetrameric avidin, after its monomer mass is determined under denaturing conditions. […]

[3] = Off-rate of 3H-biotin from streptavidin (cold biotin chase); format: binding; settings: 50 μM cold biotin chase, 5 hours at 37° C., ± s.e.m.
Procedure: (Green, N. M. Methods in Enzymol. 184: 51-67, 1990). Dissociation was then initiated by addition of cold biotin at a final concentration of 50 μM and time-points taken over 5 hours at 37° C. 50 μL aliquots were removed and added to 200 μL 0.2M ZnSO4 chilled on ice, followed by 200 μL 0.2 M NaOH. The protein precipitate was pelleted by centrifugation at 16,500 g for 5 min, and ^3H-biotin in the supernatant was measured by liquid scintillation counting. Data were plotted as ln(fraction bound) versus time, and fit to a straight line by linear regression. Dissociation rates were deduced from the slope of the line and the equation: ln(fraction bound)=−koff(t) where fraction bound=(total ^3H-biotin−free ^3H-biotin at timepoint)/(total ^3H-biotin−free ^3H-biotin before cold biotin chase).

Row | biotin binding per avidin tetramer by mass spectrometry (in words) [2] | Substance | Alexa staining of biotinylated AP-CFP-TM [1] | off-rate from biotin [3]
1 | No biotin binding | D4: Streptavidin tetramer with 4 dead subunits (D: N23A, S27D, S45A, SEQ ID NO:3) [Tetramer D4] | no detectable staining | –
2 | single biotin | A1D3: Monovalent streptavidin tetramer: one His6-tagged wild-type (A) subunit and three dead (D) subunits [Tetramer A1D3] | detected equally well | 6.14±0.19×10^−5 s^−1
